Reference: PubChem BioAssay AID248 (DTP/NCI, 2004)
Values joined by “and” are separate entries in the source; they are usually repeats but may differ in a detail not shown here. Identical values can stand only once. Inconclusive results and toxic doses are left out. No stated cut-off is given here; in the data, active means T/C of 150% or more; inactive means T/C below 125%.

Test system: L1210 leukemia ip in BDF1 mice, survival T/C
Experiment: NCI In Vivo Anticancer Drug Screen. Data for tumor model L1210 Leukemia (intraperitoneal) in B6D2F1 (BDF1) mice
Settings: endpoint: mean survival time, higher = longer survival
How it was run: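 Value reflects the ratio of survival in compound-treated mice to survival in vehicle-treated controls, with both groups carrying the same transplanted tumor.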

[1] = dose: 5.0 mg/kg/injection, schedule: Q01DX001 (ip), vehicle: saline
[2] = dose: 100.0 mg/kg/injection, schedule: Q01DX001 (ip), vehicle: saline
[3] = dose: 100.0 mg/kg/injection, schedule: Q04DX003 (ip), vehicle: saline
[4] = dose: 200.0 mg/kg/injection, schedule: Q01DX001 (ip), vehicle: saline
[5] = dose: 200.0 mg/kg/injection, schedule: Q04DX003 (ip), vehicle: saline
[6] = dose: 400.0 mg/kg/injection, schedule: Q01DX001 (ip), vehicle: saline
[7] = dose: 100.0 mg/kg/injection, schedule: Q01DX009 (ip), vehicle: saline
[8] = dose: 200.0 mg/kg/injection, schedule: Q01DX009 (ip), vehicle: saline

Measured: T/C

CCCC[P+](CCCC)(CCCC)CCCC
inactive: [1] 102 % of control | dose: 6.25 mg/kg/injection, schedule: Q04DX002 (ip), vehicle: Klucel (hydroxypropylcellulose) (HPC) 89 % of control | dose: 10.0 mg/kg/injection, schedule: Q01DX001 (ip), vehicle: saline 123 % of control | dose: 12.5 mg/kg/injection, schedule: Q04DX002 (ip), vehicle: Klucel (hydroxypropylcellulose) (HPC) 103 % of control | dose: 20.0 mg/kg/injection, schedule: Q01DX001 (ip), vehicle: saline 104 % of control | dose: 25.0 mg/kg/injection, schedule: Q04DX002 (ip), vehicle: Klucel (hydroxypropylcellulose) (HPC) 95 % of control and 104 % of control

CCc1csc(=S)[nH]1
inactive: dose: 50.0 mg/kg/injection, schedule: Q01DX009 (ip), vehicle: Klucel (hydroxypropylcellulose) (HPC) 98 % of control | dose: 100.0 mg/kg/injection, schedule: Q01DX009 (ip), vehicle: Klucel (hydroxypropylcellulose) (HPC) 93 % of control | dose: 100.0 mg/kg/injection, schedule: Q04DX003 (ip), vehicle: Klucel (hydroxypropylcellulose) (HPC) 98 % of control | dose: 200.0 mg/kg/injection, schedule: Q01DX009 (ip), vehicle: Klucel (hydroxypropylcellulose) (HPC) 96 % of control | dose: 200.0 mg/kg/injection, schedule: Q04DX003 (ip), vehicle: Klucel (hydroxypropylcellulose) (HPC) 98 % of control

CC(C)NCC(O)c1cccc(O)c1 (stereo unspecified)
inactive: dose: 50.0 mg/kg/injection, schedule: Q04DX003 (ip), vehicle: saline 101 % of control | [2] 98 % of control | [3] 101 % of control | [4] 97 % of control | [5] 104 % of control

CCOC(=O)c1cccc(N(CCOS(C)(=O)=O)CCOS(C)(=O)=O)c1
inactive: dose: 16.0 mg/kg/injection, schedule: Q01DX015 (ip), vehicle: saline 110 % of control | dose: 32.0 mg/kg/injection, schedule: Q01DX015 (ip), vehicle: saline 118 % of control | dose: 64.0 mg/kg/injection, schedule: Q01DX015 (ip), vehicle: saline 111 % of control

CC(c1ccccc1)C(C)(C#N)c1ccccc1 (stereo unspecified)
inactive: dose: 50.0 mg/kg/injection, schedule: Q01DX001 (ip), vehicle: saline 97 % of control | [2] 100 % of control | [4] 100 % of control | [6] 103 % of control

S=c1[nH]c(=S)c2[nH]cnc2[nH]1
inactive: dose: 50.0 mg/kg/injection, schedule: Q01DX001 (ip), vehicle: other 113 % of control | dose: 50.0 mg/kg/injection, schedule: Q01DX009 (ip), vehicle: other 94 % of control | dose: 100.0 mg/kg/injection, schedule: Q01DX001 (ip), vehicle: other 101 % of control | dose: 100.0 mg/kg/injection, schedule: Q01DX009 (ip), vehicle: other 96 % of control | dose: 200.0 mg/kg/injection, schedule: Q01DX001 (ip), vehicle: other 103 % of control | dose: 200.0 mg/kg/injection, schedule: Q01DX009 (ip), vehicle: other 97 % of control | dose: 400.0 mg/kg/injection, schedule: Q01DX001 (ip), vehicle: other 107 % of control | dose: 400.0 mg/kg/injection, schedule: Q01DX009 (ip), vehicle: other 102 % of control | dose: 600.0 mg/kg/injection, schedule: Q01DX001 (ip), vehicle: other 100 % of control | dose: 1200.0 mg/kg/injection, schedule: Q01DX001 (ip), vehicle: other 117 % of control

Nc1cc2c(cc1I)-c1ccccc1C2=O
inactive: dose: 100.0 mg/kg/injection, schedule: Q01DX001 (ip), vehicle: carboxymethylcellulose (CMC) 94 % of control | dose: 200.0 mg/kg/injection, schedule: Q01DX001 (ip), vehicle: carboxymethylcellulose (CMC) 89 % of control | dose: 400.0 mg/kg/injection, schedule: Q01DX001 (ip), vehicle: carboxymethylcellulose (CMC) 97 % of control

COc1ccc(OC)c(NC(=O)NNC(=O)CNC(=O)Nc2cccc(C)n2)c1
inactive: dose: 25.0 mg/kg/injection, schedule: Q01DX009 (ip), vehicle: saline with Tween-80 94 % of control | dose: 50.0 mg/kg/injection, schedule: Q01DX009 (ip), vehicle: saline with Tween-80 94 % of control | dose: 100.0 mg/kg/injection, schedule: Q01DX009 (ip), vehicle: saline with Tween-80 90 % of control

COc1ccc(C[C@H]2NC[C@H](O)[C@H]2OC(C)=O)cc1
inactive: dose: 25.0 mg/kg/injection, schedule: Q01DX Z (ip), vehicle: saline 109 % of control | dose: 50.0 mg/kg/injection, schedule: Q01DX Z (ip), vehicle: saline 102 % of control | dose: 100.0 mg/kg/injection, schedule: Q01DX Z (ip), vehicle: saline 109 % of control | dose: 200.0 mg/kg/injection, schedule: Q01DX Z (ip), vehicle: saline 92 % of control and 107 % of control

CCOC(=O)Oc1c(Cl)cc(S(=O)(=O)F)cc1Cl
inactive: dose: 100.0 mg/kg/injection, schedule: Q04DX003 (ip), vehicle: carboxymethylcellulose (CMC) 101 % of control | dose: 200.0 mg/kg/injection, schedule: Q04DX003 (ip), vehicle: carboxymethylcellulose (CMC) 108 % of control | dose: 400.0 mg/kg/injection, schedule: Q04DX003 (ip), vehicle: carboxymethylcellulose (CMC) 90 % of control

CN(C)/N=C1\CCc2ccccc21
inactive: [2] 106 % of control | [7] 102 % of control | [4] 113 % of control | [6] 101 % of control

OB(O)c1ccc(F)cc1
inactive: dose: 100.0 mg/kg/injection, schedule: Q04DX003 (ip), vehicle: acetone 101 % of control | dose: 200.0 mg/kg/injection, schedule: Q04DX003 (ip), vehicle: acetone 98 % of control | dose: 400.0 mg/kg/injection, schedule: Q04DX003 (ip), vehicle: acetone 97 % of control

C=CCOc1ccn(CC=C)c(=O)n1
inactive: dose: 100.0 mg/kg/injection, schedule: Q01DX001 (ip), vehicle: Klucel (hydroxypropylcellulose) (HPC) 96 % of control | dose: 200.0 mg/kg/injection, schedule: Q01DX001 (ip), vehicle: Klucel (hydroxypropylcellulose) (HPC) 98 % of control | dose: 400.0 mg/kg/injection, schedule: Q01DX001 (ip), vehicle: Klucel (hydroxypropylcellulose) (HPC) 105 % of control

C[C@@]1(O)CCCC[C@H]1O
inactive: [7] 95 % of control | [3] 106 % of control | [8] 105 % of control | [5] 103 % of control | dose: 400.0 mg/kg/injection, schedule: Q01DX009 (ip), vehicle: saline 96 % of control | dose: 400.0 mg/kg/injection, schedule: Q04DX003 (ip), vehicle: saline 92 % of control

COc1cc(C(=O)NOCc2cc3c(cc2Cl)OCO3)cc(OC)c1OC
inactive: dose: 200.0 mg/kg/injection, schedule: Q04DX003 (ip), vehicle: saline sonified 92 % of control | dose: 400.0 mg/kg/injection, schedule: Q04DX003 (ip), vehicle: saline sonified 90 % of control

CCCCCCNC(C)=O
inactive: dose: 12.5 mg/kg/injection, schedule: Q01DX009 (ip), vehicle: saline 92 % of control | dose: 25.0 mg/kg/injection, schedule: Q01DX009 (ip), vehicle: saline 118 % of control | dose: 50.0 mg/kg/injection, schedule: Q01DX009 (ip), vehicle: saline 97 % of control and 90 % of control | [7] 90 % of control | dose: 100.0 mg/kg/injection, schedule: Q04DX003 (ip), vehicle: saline with Tween-80 95 % of control | [8] 97 % of control | dose: 200.0 mg/kg/injection, schedule: Q04DX003 (ip), vehicle: saline with Tween-80 87 % of control

O=C(c1ccccc1)c1nc2ccccc2[nH]1
inactive: dose: 100.0 mg/kg/injection, schedule: Q04DX002 (ip), vehicle: Klucel (hydroxypropylcellulose) (HPC) 108 % of control | dose: 200.0 mg/kg/injection, schedule: Q04DX002 (ip), vehicle: Klucel (hydroxypropylcellulose) (HPC) 101 % of control | dose: 400.0 mg/kg/injection, schedule: Q04DX002 (ip), vehicle: Klucel (hydroxypropylcellulose) (HPC) 104 % of control

c1ccc(C[n+]2ccc(-c3cc[n+](Cc4ccccc4)cc3)cc2)cc1
inactive: [1] 109 % of control

O=c1c(CO)c[nH]cc1CO
inactive: [2] 101 % of control | [4] 103 % of control | [6] 107 % of control

CC(=O)c1cccc(NC(=O)Nc2cccc(C(C)=O)c2)c1
inactive: dose: 2.5 mg/kg/injection, schedule: Q01DX009 (ip), vehicle: saline 101 % of control | dose: 5.0 mg/kg/injection, schedule: Q01DX009 (ip), vehicle: saline 95 % of control | dose: 10.0 mg/kg/injection, schedule: Q01DX009 (ip), vehicle: saline 98 % of control | dose: 20.0 mg/kg/injection, schedule: Q01DX009 (ip), vehicle: saline 93 % of control and 101 % of control | dose: 40.0 mg/kg/injection, schedule: Q01DX009 (ip), vehicle: saline 90 % of control | dose: 80.0 mg/kg/injection, schedule: Q01DX009 (ip), vehicle: saline 93 % of control | dose: 160.0 mg/kg/injection, schedule: Q01DX009 (ip), vehicle: saline 90 % of control | dose: 320.0 mg/kg/injection, schedule: Q01DX009 (ip), vehicle: saline 95 % of control
